The record followed here is patent US20080045514A1 (Cytovia, Inc., priority 2006, published 2008).

Common to all, as to type: cell-based
Assay [1] concerns human hepatocellular carcinoma cell line SNU398. Nature of the assay: Inhibition of cell proliferation (GI50), SNU398. The settings on record: Homo sapiens; SNU 398 cells, 48 h, CellTiter-Glo. As to the method:
(§1) Human breast cancer cell lines T-47D, human hepatocellular carcinoma cell line SNU398, human colon carcinoma cell line HCT116, human lung cancer cell line H1299, human leukemia cell line K562, human lymphoma cell line Raji, human B cell lymphoblastoid cell line Ramos, and human Burkitt's lymphoma cell line Namalwa were grown and harvested as in Example 100. An aliquot of […] of cells (4.4×10^4 cells/mL) was added to a well of a 96-well microtiter plate containing 5 μL of a 10% DMSO in RPMI-1640 media solution containing 10 nM to 100 μM of 3-(2-chlorophenyl)-6-(3,4-methylenedioxyphenyl)-7H-[1,2,4]triazolo[3,4-b][1,3,4]thiadiazine (1 nM to 10 μM final). An aliquot of 45 μL of cells was added to a well of a 96-well microtiter plate containing 5 μL of a 10% DMSO in RPMI-1640 media solution without compound as the control sample for maximal cell proliferation (LMax). The samples were mixed by agitation and then incubated at 37° C. for 48 h in a 5% CO2-95% humidity incubator. After incubation, the samples were removed from the incubator and 25 μL of CellTiter-Glo™ reagent (Promega) was added. The samples were mixed by agitation and incubated at room temperature for 10-15 min. Plates were then read using a luminescent plate reader (Model SPECTRAfluor Plus, Tecan) to give Ltest values.
(§2) The samples were mixed by agitation and then incubated at 37° C. for 0.5 h in a 5% CO2-95% humidity incubator. After incubation, the samples were removed from the incubator and 25 μL of CellTiter-Glo™ reagent (Promega) was added. The samples were mixed by agitation and incubated at […] 10-15 min at room temperature in a 5% CO2-95% humidity incubator. Fluorescence was read as above, (LStart) defining luminescence for initial cell number used as baseline in GI50 determinations.
(§3) Calculation: GI50 (dose for 50% inhibition of cell proliferation) is the concentration where [(Ltest−LStart)/(LMax−LStart)]=0.5.
On the technique in general: ATP-based viability assays read luminescence as a measure of living cells.

The test system of assay [2] is human Burkitt's lymphoma cell line Namalwa. In words: Inhibition of cell proliferation (GI50), Namalwa. The settings on record: Homo sapiens, Burkitts lymphoma cell; Namalwa cells, 48 h, CellTiter-Glo. A digest of the protocol:
(§4)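 48 h continuous treatment, 37 °C; final dose range 1 nM–10 μM; ATP-based luminescent viability (CellTiter-Glo); GI50 relative to 0.5 h start signal.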

For assay [3], the system named is human colon carcinoma cell line HCT116. In words: Caspase cascade activation (EC50), HCT116. The settings on record: Homo sapiens, HCT-116; HCT116 cells; caspase cascade activation; read-out: caspase potency (EC50) HCT116. A digest of the protocol:
(§5)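 Cells in ATCC medium plus 10% FCS, seeded at 0.65×10^6 cells/mL, incubated with compound at 0.016 to 10 μM final, 48 h, 37 °C. Lysis-substrate buffer (14 μM DEVD-R110, 20 mM DTT, pH 7.2, lysolecithin) added; fluorescence read after 3 h at room temperature.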

Assay [4] has as its system human breast cancer cell line T-47D. In words: Inhibition of cell proliferation (GI50), T47D. The settings on record: Homo sapiens; T47D cells, 48 h, CellTiter-Glo. As to the method: as §1, §2, §3
Assay [5] has the same test system. Nature of the assay: Caspase cascade activation (EC50), T-47D. The settings on record: Homo sapiens; T47D cells; caspase cascade activation; read-out: caspase potency (EC50) T47D. A digest of the protocol:
as §5

Assay [6] relates to human Burkitt's lymphoma cell line Namalwa. Nature of the assay: Caspase cascade activation (EC50), Namalwa. The settings on record: Homo sapiens, Burkitts lymphoma cell; Namalwa cells; caspase cascade activation; read-out: caspase potency (EC50) Namalwa. Put shortly: as §5
Assay [7] concerns human hepatocellular carcinoma cell line SNU398. Nature of the assay: Caspase cascade activation (EC50), SNU398. The settings on record: Homo sapiens, SNU-398; SNU398 cells; caspase cascade activation; read-out: caspase potency (EC50) SNU398. Put shortly:
as §5

The subject of assay [8] is human colon carcinoma cell line HCT116. In words: Inhibition of cell proliferation (GI50), HCT116. The settings on record: Homo sapiens; HCT 116 cells, 48 h, CellTiter-Glo. Put shortly:
as §4

Turning to `CNc1ccccc1-c1nnc2n1N=C(c1ccc(C)cc1)CS2` [Example 84, 3-(2-Methylaminophenyl)-6-(4-methylphenyl)-7H-[1,2,4]triazolo[3,4-b][1,3,4]thiadiazine], the concentration for 50% growth inhibition (GI50) was found to be 154 nM in assay [1], 150 nM in assay [2], 498 nM in assay [4] and 911 nM in assay [8]. For the same molecule, the EC50 in assay [3] was found to be 0.13 µM; in assay [5] it was 0.528 µM; in assay [6], 0.125 µM; in assay [7], 0.148 µM.

As for `COc1ccc(C2=Nn3c(nnc3-c3ccc(Cl)cc3Cl)SC2)cc1` [Example N3], the concentration for 50% growth inhibition (GI50) in assay [1] is 13 nM; in assay [2] it was 64 nM; in assay [4] it was 34 nM; in assay [8] it was 40 nM. The concentration for a half-maximal effect (EC50) was found to be 0.055 µM in assay [3], 0.284 µM in assay [5], 0.032 µM in assay [6] and 0.052 µM in assay [7].

`COc1ccccc1-c1nnc2n1N=C(c1ccc3c(c1)OCCO3)CS2` [Example 43, 6-(2,3-Dihydrobenzo[b][1,4]dioxin-6-yl)-3-(2-methoxyphenyl)-7H-[1,2,4]triazolo[3,4-b][1,3,4]thiadiazine]: the concentration for 50% growth inhibition (GI50) in assay [1] was 13 nM; in assay [2], 64 nM; in assay [4], 34 nM; in assay [8] it was 40 nM. Further, the EC50 was found to be 0.025 µM in assay [3], 0.035 µM in assay [5], 0.015 µM in assay [6] and 0.017 µM in assay [7].

Consider `COc1ccc(Cl)cc1-c1nnc2n1N=C(c1ccc(C)cc1)CS2` [Example 62, 3-(5-Chloro-2-methoxyphenyl)-6-(4-methylphenyl)-7H-[1,2,4]triazolo[3,4-b][1,3,4]thiadiazine], for which the concentration for 50% growth inhibition (GI50) in assay [1] is 10 nM; in assay [2] it was 15 nM; in assay [4], 33 nM; in assay [8], 50 nM. Also, the EC50 came to 0.031 µM in assay [3], 0.101 µM in assay [5], 0.018 µM in assay [6] and 0.024 µM in assay [7].

As to `COc1ccccc1-c1nnc2n1N=C(c1ccc3[nH]c(=O)oc3c1)CS2` [Example 47, 6-(2,3-Dihydro-2-oxobenzo[d]oxazol-6-yl)-3-(2-methoxyphenyl)-7H-[1,2,4]triazolo[3,4-b][1,3,4]thiadiazine], the GI50 amounted to 1220 nM in assay [1], 1480 nM in assay [2], 3020 nM in assay [4] and 3000 nM in assay [8]. In addition, the concentration for a half-maximal effect (EC50) worked out at 5.54 µM in assay [3], 2.33 µM in assay [5], 4.79 µM in assay [6] and 2.75 µM in assay [7].

As to `Cc1ccc(C2=Nn3c(nnc3-c3ccc(Cl)cc3C)SC2)cc1` [Example 81, 3-(4-Chloro-2-methylphenyl)-6-(4-methylphenyl)-7H-[1,2,4]triazolo[3,4-b][1,3,4]thiadiazine], the GI50 in assay [1] came out at 21 nM; in assay [2], 18 nM; in assay [4], 255 nM; in assay [8], 79 nM. Further, the EC50 turned out to be 0.067 µM in assay [3], 0.27 µM in assay [5], 0.055 µM in assay [6] and 0.039 µM in assay [7].

Consider `COc1ccc(C2=Nn3c(nnc3-c3ccccc3OC)SC2)cc1` [Example 46, 3-(2-Methoxyphenyl)-6-(4-methoxyphenyl)-7H-[1,2,4]triazolo[3,4-b][1,3,4]thiadiazine], for which the GI50 in assay [1] turned out to be 10 nM; in assay [2], 13 nM; in assay [4], 12 nM; in assay [8], 8 nM. Moreover, the half-maximal effective concentration (EC50) in assay [3] came to 0.019 µM; in assay [5], 0.043 µM; in assay [6] it was 0.011 µM; in assay [7], 0.017 µM.

Take `Cc1ccc(C2=Nn3c(nnc3-c3ccccc3C)SC2)cc1N` [Example 61, 6-(3-Amino-4-methylphenyl)-3-(2-methylphenyl)-7H-[1,2,4]triazolo[3,4-b][1,3,4]thiadiazine]: the 50% growth inhibitory concentration (GI50) in assay [1] worked out at 228 nM; in assay [2] it was 150 nM; in assay [4], 269 nM; in assay [8], 400 nM. For the same molecule, the EC50 in assay [3] amounted to 0.137 µM; in assay [5], 0.33 µM; in assay [6] it was 0.071 µM; in assay [7], 0.109 µM.

With `COc1ccccc1-c1nnc2n1N=C(c1ccc(N=[N+]=[N-])cc1)CS2` [Example 76, 6-(4-Azidophenyl)-3-(2-methoxyphenyl)-7H-[1,2,4]triazolo[3,4-b][1,3,4]thiadiazine], the GI50 in assay [1] worked out at 23 nM; in assay [2] it was 55 nM; in assay [4], 34 nM; in assay [8] it was 109 nM. Moreover, the EC50 in assay [3] is 0.072 µM; in assay [5], 0.093 µM; in assay [6] it was 0.062 µM; in assay [7], 0.054 µM.

`COc1cc(C)ccc1C1=Nn2c(nnc2-c2ccccc2OC)SC1` [Example 41, 6-(2-Methoxy-4-methylphenyl)-3-(2-methoxyphenyl)-7H-[1,2,4]triazolo[3,4-b][1,3,4]thiadiazine]: the 50% growth inhibitory concentration (GI50) in assay [1] is 117 nM; in assay [2], 208 nM; in assay [4] it was 261 nM; in assay [8] it was 1270 nM. The EC50 came to 0.289 µM in assay [3], 0.422 µM in assay [5], 0.182 µM in assay [6] and 0.18 µM in assay [7].

Turning to `COc1ccccc1-c1nnc2n1N=C(c1ccc(Cl)c(N)c1)CS2` [Example 59, 6-(3-Amino-4-chlorophenyl)-3-(2-methoxyphenyl)-7H-[1,2,4]triazolo[3,4-b][1,3,4]thiadiazine], the GI50 in assay [1] came out at 98 nM; in assay [2], 84 nM; in assay [4], 103 nM; in assay [8] it was 149 nM. Further, the EC50 is 0.059 µM in assay [3], 0.102 µM in assay [5], 0.034 µM in assay [6] and 0.043 µM in assay [7].

Consider `COc1cccc(-c2nnc3n2N=C(c2ccc(C)cc2)CS3)c1OC` [Example 65, 3-(2,3-Dimethoxyphenyl)-6-(4-methylphenyl)-7H-[1,2,4]triazolo[3,4-b][1,3,4]thiadiazine], for which the GI50 in assay [1] is 204 nM; in assay [2], 1230 nM; in assay [4] it was 1510 nM; in assay [8] it was 4680 nM. Moreover, the EC50 is 0.635 µM in assay [3], 0.61 µM in assay [5], 0.561 µM in assay [6] and 0.522 µM in assay [7].

Turning to `COc1ccccc1-c1nnc2n1N=C(c1ccc(C)c(N)c1)CS2` [Example 58, 6-(3-Amino-4-methylphenyl)-3-(2-methoxyphenyl)-7H-[1,2,4]triazolo[3,4-b][1,3,4]thiadiazine], the GI50 in assay [1] was found to be 24 nM; in assay [2], 25 nM; in assay [4], 26 nM; in assay [8] it was 52 nM. Also, the EC50 in assay [3] came to 0.054 µM; in assay [5] it was 0.076 µM; in assay [6], 0.03 µM; in assay [7], 0.032 µM.

Turning to `CSc1ccccc1-c1nnc2n1N=C(c1ccc(C)cc1)CS2` [Example 71, 3-(2-Methylthiophenyl)-6-(4-methylphenyl)-7H-[1,2,4]triazolo[3,4-b][1,3,4]thiadiazine], the GI50 in assay [1] amounted to 91 nM; in assay [2] it was 77 nM; in assay [4], 276 nM; in assay [8], 169 nM. For the same molecule, the concentration giving a half-maximal response (EC50) in assay [3] was found to be 0.076 µM; in assay [5], 0.453 µM; in assay [6], 0.065 µM; in assay [7], 0.07 µM.

As a reminder, the GI50 is the concentration that inhibits growth by half. A higher GI50 goes with lower sensitivity of the cells. In general, EC50 refers to the concentration that produces a half-maximal response.
